Read-outs that look alike come from different tables or passages of the source.
Columns and labels:
[1] = system: zymosan-induced paw edema; experiment: Effect on zymosan-induced paw edema; type: in vivo, male Wistar rats; settings: rat, 100 mg/kg p.o., 1 hour before 1% zymosan; paw volume 4 hours after injection
Method: b) Effect on zymosan-induced paw edema
(§1) The experiment was carried out in the same manner as in the carrageenin-induced paw edema test except that 1% zymosan (Zymosan A®; Sigma Chemical Co.) was used in place of 1% carrageenin and the right hind paw volume was measured 4 hours after the injection of the edema-inducing substance instead of 3 hours. The swelling rate and the suppression rate were calculated by equation 1 and equation 2, respectively.

[2] = system: Type III allergic reaction-induced pleurisy; experiment: Effect on Type III allergic reaction-induced pleurisy; type: in vivo, male Wistar rats; settings: po, 4.5 h, rat, 100 mg/kg p.o., four and a half hours after induction of pleurisy
Method: d) Effect on Type III allergic reaction-induced pleurisy
IgG was purified from rabbit anti-OA serum prepared in advance by the method of Koda et al. [Folia Pharmacol., Japon 66, 237, (1970)] in the following manner.
A saturated solution of ammonium sulfate (half volume of the serum) was added to the anti-OA serum, and the mixture was left for one hour at 4° C. The precipitate was taken by centrifugation (3,000 rpm, 30 min, 4° C.) and dissolved in phosphate buffered saline of Dulbecco. Then, ammonium sulfate fractionation was carried out three times in the same manner as above, whereby a purified IgG fraction was obtained.
Male Wistar rats weighing 225-250 g were pre-bred for several days and fasted overnight prior to the experiment The test compound (100 mg/kg) was orally administered to the animals, and after 30 minutes, IgG of rabbit anti-OA (0.2 ml, 5 mg protein/ml) was injected into the pleural cavity of the animals under anesthesia with ether. Thirty minutes after the injection of IgG, OA (albumin egg grade III; Sigma Chemical Co.) was intravenously injected into the animals as an inducer of pleurisy. After two hours, Evans Blue (25 mg/kg) was intravenously injected, and four and a half hours after the induction of pleurisy, the animals were killed by bleeding.
Then, an exudate in the pleural cavity was obtained, and the volume of the exudate was measured. The pleural cavity was rinsed with 5 ml of physiological saline and the rinsings were added to the exudate. The number of infiltrated cells in the mixture was counted and the volume of the dye in the mixture was determined by the absorption at 625 nm [Agent Actions., 25, 326 (1988)]. The suppression rates for the volume of the exudate, the number of infiltrated cells and the volume of the dye in the pleural cavity were calculated by the following equation 3. [formula]
S.V: the value obtained with the group administered with the test compound and in which pleurisy is induced
N.V: the value obtained with the group in which pleurisy is not induced
P.V: the value obtained with the group administered with no test compound and in which pleurisy is induced

[3] = system: male dd-mice; settings: mouse, in vivo, 10080 min; for Acute toxicity (MLD, Minimum Lethal Dose) i.p.: ip; for Acute toxicity (MLD, Minimum Lethal Dose) p.o.: po
Method: The test compounds were orally or intraperitoneally administered to male dd-mice weighing 20 to 25 g. MLD (Minimum Lethal Dose) was determined by observing the mortality for seven days after the administration.

[4] = system: carrageenin-induced paw edema; experiment: Effect on carrageenin-induced paw edema; type: in vivo, male Wistar rats; settings: po; rat, 100 mg/kg p.o., 1 hour before 1% carrageenin; paw volume 3 hours after injection; read-out: Suppression rate for paw swelling, (a) carrageenin-induced edema
Method: a) Effect on carrageenin-induced paw edema
Male Wistar rats weighing 150 to 160 g (n=3-5) were used in the experiment. After the right hind paw volume was measured with the plethysmograph (TK-101; Unicom Co., Ltd.), the test compound (100 mg/kg) was orally administered. After one hour, 0.1 ml of 1 % carrageenin (λ-carrageenin; PICNIN-A®, Zushi Kagaku Co., Ltd.) was subcutaneously injected into the right hind paw footpad. Three hours after the injection of carrageenin, the right hind paw volume was measured and the swelling rate was determined by the following equation 1. [formula]
Vt: the right hind paw volume measured 3 hours after the injection of carrageenin
Vo: the right hind paw volume measured prior to the injection of carrageenin
The suppression rate was calculated by the following equation 2. [formula]
Swt: the swelling rate of the group administered with the test compound
Swc: the swelling rate of the control group administered with no test compound

[5] = system: arachidonic acid-induced paw edema; experiment: Arachidonic acid-induced paw edema; type: in vivo, male Wistar rats; settings: rat, 100 mg/kg p.o., 1 hour before 0.5% arachidonic acid; paw volume one hour after injection
Method: c) Arachidonic acid-induced paw edema
as §1, with “0.5% arachidonic acid” for “1% zymosan (Zymosan A®; Sigma Chemical Co.)”, “one hour” for “4 hours”

[6] = Evans Blue 25 mg/kg i.v., absorption at 625 nm, read-out: Suppression rate, volume of dye in the exudate
[7] = read-out: Suppression rate, volume of exudate
[8] = read-out: Suppression rate, number of infiltrated cells in the exudate

| SMILES | Suppression rate for paw swelling, (b) zymosan-induced edema [1] [%] | inhibition in vivo at 100 mg/kg [2, 6] [%] | inhibition in vivo at 100 mg/kg [2, 7] [%] | Acute toxicity (MLD, Minimum Lethal Dose) i.p. [3] [mg/kg] | Acute toxicity (MLD, Minimum Lethal Dose) p.o. [3] [mg/kg] | inhibition in vivo at 100 mg/kg [4] [%] | inhibition in vivo at 100 mg/kg [2, 8] [%] | Suppression rate for paw swelling, (c) arachidonic acid-induced edema [5] [%] |
| --- | --- | --- | --- | --- | --- | --- | --- | --- |
| CCCCNC(=O)c1c(O)c2cccnc2n(-c2ccccc2)c1=O [Compound 1, N-(n-Butyl)-4-hydroxy-2-oxo-1-phenyl-1H-1,8-naphthyridine-3-carboxamide] | 20.5 | – | – | – | – | – | – | – |
| CNC(=O)c1c(O)c2cccnc2n(-c2ccccc2)c1=O [Compound 2, 4-Hydroxy-N-methyl-2-oxo-1-phenyl-1H-1,8-naphthyridine-3-carboxamide] | – | 28.3 | 27.2 | – | – | – | – | – |
| CN(C)NC(=O)c1c(O)c2cccnc2n(-c2ccccc2)c1=O [Compound 6, N-Dimethylamino-4-hydroxy-2-oxo-1-phenyl-1H-1,8-naphthyridine-3-carboxamide] | 27.3 | – | – | > 100 | > 300 | 31.7 | – | – |
| CN(C)CCNC(=O)c1c(O)c2cccnc2n(-c2ccccc2)c1=O [Compound 7, N-(2-Dimethylaminoethyl)-4-hydroxy-2-oxo-1-phenyl-1H-1,8-naphthyridine-3-carboxamide] | – | – | – | > 100 | > 300 | 23.2 | – | – |
| O=C(Nc1cccc(Cl)c1)c1c(O)c2cccnc2n(-c2ccccc2)c1=O [Compound 8, N-(3-Chlorophenyl)-4-hydroxy-2-oxo-1-phenyl-1H-1,8-naphthyridine-3-carboxamide] | – | – | – | – | – | – | 21.7 | – |
| Cc1cccc(NC(=O)c2c(O)c3cccnc3n(-c3ccccc3)c2=O)c1 [Compound 9, 4-Hydroxy-N-(3-methylphenyl)-2-oxo-1-phenyl-1H-1,8-naphthyridine-3-carboxamide] | – | – | 27.3 | > 100 | > 300 | 25.2 | 28.5 | – |
| O=C(Nc1cccc([N+](=O)[O-])c1)c1c(O)c2cccnc2n(-c2ccccc2)c1=O [Compound 11, 4-Hydroxy-N-(3-nitrophenyl)-2-oxo-1-phenyl-1H-1,8-naphthyridine-3-carboxamide] | – | 37.2 | 22.1 | > 100 | > 300 | – | – | – |
| O=C(Nc1nccs1)c1c(O)c2cccnc2n(-c2ccccc2)c1=O [Compound 12, 4-Hydroxy-2-oxo-1-phenyl-N-(2-thiazolyl)-1H-1,8-naphthyridine-3-carboxamide] | – | 24 | – | – | – | – | – | – |
| O=C(Nc1nc2ccccc2s1)c1c(O)c2cccnc2n(-c2ccccc2)c1=O [Compound 13, N-(2-Benzothiazolyl)-4-hydroxy-2-oxo-1-phenyl-1H-1,8-naphthyridine-3-carboxamide] | – | 25.8 | 28.9 | – | – | – | – | – |
| COc1ccc(NC(=O)c2c(O)c3cccnc3n(-c3ccccc3)c2=O)cc1 [Compound 16, 4-Hydroxy-N-(4-methoxyphenyl)-2-oxo-1-phenyl-1H-1,8-naphthyridine-3-carboxamide] | – | – | – | – | – | – | 25.4 | – |
| Cc1ccc(NC(=O)c2c(O)c3cccnc3n(-c3ccccc3)c2=O)cc1 [Compound 17, 4-Hydroxy-N-(4-methylphenyl)-2-oxo-1-phenyl-1H-1,8-naphthyridine-3-carboxamide] | – | – | 22.4 | – | – | – | 21.5 | – |
| COc1cccc(NC(=O)c2c(O)c3cccnc3n(-c3ccccc3)c2=O)c1 [Compound 18, 4-Hydroxy-N-(3-methoxyphenyl)-2-oxo-1-phenyl-1H-1,8-naphthyridine-3-carboxamide] | – | – | 26.9 | – | – | – | 22.1 | – |
| COc1ccccc1NC(=O)c1c(O)c2cccnc2n(-c2ccccc2)c1=O [Compound 19, 4-Hydroxy-N-(2-methoxyphenyl)-2-oxo-1-phenyl-1H-1,8-naphthyridine-3-carboxamide] | – | – | – | > 100 | > 300 | 34.2 | 26.8 | – |
| O=C(NC1CCN(Cc2ccccc2)CC1)c1c(O)c2cccnc2n(-c2ccccc2)c1=O [Compound 21, N-(1-Benzylpiperidin-4-yl)-4-hydroxy-2-oxo-1-phenyl-1H-1,8-naphthyridine-3-carboxamide] | – | 50.2 | 32.4 | – | – | – | 22.1 | – |
| O=C(NC1=NCCS1)c1c(O)c2cccnc2n(-c2ccccc2)c1=O [Compound 22, 4-Hydroxy-2-oxo-1-phenyl-N-(thiazolin-2-yl)-1H-1,8-naphthyridine-3-carboxamide] | – | 51 | 89.2 | > 100 | > 300 | – | 34.6 | 33.4 |
| O=C(Nc1cnccn1)c1c(O)c2cccnc2n(-c2ccccc2)c1=O [Compound 23, 4-Hydroxy-2-oxo-1-phenyl-N-(pyrazin-2-yl)-1H-1,8-naphthyridine-3-carboxamide] | 22.2 | 43.2 | 24 | > 100 | > 300 | 22.7 | 26.7 | – |
| CCc1nnc(NC(=O)c2c(O)c3cccnc3n(-c3ccccc3)c2=O)s1 [Compound 24, 4-Hydroxy-2-oxo-1-phenyl-N-(5-ethyl-1,3,4-thiadiazol-2-yl)-1H-1,8-naphthyridine-3-carboxamide] | – | 32.1 | 29.7 | – | – | – | – | – |
| O=C(NN1CCOCC1)c1c(O)c2cccnc2n(-c2ccccc2)c1=O [Compound 27, 4-Hydroxy-N-morpholino-2-oxo-1-phenyl-1H-1,8-naphthyridine-3-carboxamide] | – | 23.6 | – | – | – | – | – | – |
| O=C(NCc1ccncc1)c1c(O)c2cccnc2n(-c2ccccc2)c1=O [Compound 28, 4-Hydroxy-2-oxo-1-phenyl-N-(4-pyridylmethyl)-1H-1,8-naphthyridine-3-carboxamide] | – | – | – | > 100 | > 300 | 27.3 | – | 41.6 |
| O=C(NCc1cccnc1)c1c(O)c2cccnc2n(-c2ccccc2)c1=O [Compound 29, 4-Hydroxy-2-oxo-1-phenyl-N-(3-pyridylmethyl)-1H-1,8-naphthyridine-3-carboxamide] | – | – | – | > 100 | > 300 | – | – | 33.3 |
